Test results: patent US11203592B2, “Inhibitors of indoleamine 2,3-dioxygenase and methods of their use” (BRISTOL-MYERS SQUIBB COMPANY, priority 2017, dated 2021)

Tests used:
[1] = biological target: T1, indoleamine 2,3-dioxygenase (IDO) (Homo sapiens, UniProt P14902); assay: HeLa cell-based indoleamine 2,3-dioxygenase (IDO) assay, kynurenine production; details: HeLa cells, IFNγ 25 ng/mL, 48 hour incubation, kynurenine absorbance at 480 nm
T1 construct: endogenous in cells; host or cells: HeLa (ATCC CCL-2), induced with IFNγ at 25 ng/mL
T1 sequence (P14902 whole entry): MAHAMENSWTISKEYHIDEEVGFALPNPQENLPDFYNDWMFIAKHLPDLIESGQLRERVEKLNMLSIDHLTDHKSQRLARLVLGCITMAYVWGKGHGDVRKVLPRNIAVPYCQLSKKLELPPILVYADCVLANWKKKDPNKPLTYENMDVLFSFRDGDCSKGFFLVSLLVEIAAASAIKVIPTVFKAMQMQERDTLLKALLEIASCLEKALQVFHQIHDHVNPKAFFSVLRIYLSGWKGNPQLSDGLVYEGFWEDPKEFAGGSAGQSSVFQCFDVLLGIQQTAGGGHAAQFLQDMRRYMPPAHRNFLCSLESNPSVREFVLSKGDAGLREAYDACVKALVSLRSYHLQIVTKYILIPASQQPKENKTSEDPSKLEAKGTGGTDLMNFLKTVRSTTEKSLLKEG
Experimental: Assessment of Inhibitor Activity in HeLa Cell-Based Indoleamine 2,3-dioxygenase (IDO) Assay:
HeLa (ATCC® CCL-2) cells were obtained from the ATCC® and cultured in Dulbecco's Modified Eagle Medium supplemented with 4.5 g/L glucose, […] (#10-013-CV, Corning), 2 mM L-alanyl-L-glutamine dipeptide (#35050-061, Gibco), 100U/mL penicillin, 100 μg/mL streptomycin (#SV30010, HyClone) and 10% fetal bovine serum (#SH30071.03 HyClone). Cells were maintained in a humidified incubator at 37° C. in 5% CO2.
IDO activity was assessed as a function of kynurenine production as follows: HeLa cells were seeded in a 96-well culture plate at a density of 5,000 cells/well and allowed to equilibrate overnight. After 24 hours, the media was aspirated and replaced with media containing IFNγ (#285-IF/CF, R&D Systems) at a final concentration of 25 ng/mL. A serial dilution of each test compound was added to the cells in a total volume of 200 μL of culture medium. After a further 48 hour incubation, 170 μL of supernatant was transferred from each well to a fresh 96-well plate. 12.1 μL of 6.1N trichloroacetic acid (#T0699, Sigma-Aldrich) was added to each well and mixed, followed by incubation at 65° C. for 20 minutes to hydrolyze N-formylkynurenine, the product of indoleamine 2,3-dioxygenase, to kynurenine. The reaction mixture was then centrifuged for 10 mins at 500×g to sediment the precipitate. 100 μL of the supernatant was transferred from each well to a fresh 96-well plate. 100 μl of 2% (w/v) p-dimethylaminobenzaldehyde (#15647-7, Sigma-Aldrich) in acetic acid (#A6283, Sigma-Aldrich) was added to each well mixed and incubated at room temperature for 20 inns. Kynurenine concentrations were determined by measuring absorbance at 480 nm and calibrating against an L-kynurenine (#K8625, Sigma-Aldrich) standard curve using a SPECTRAMAX® M2e microplate reader (Molecular Devices). The percentage activity at each inhibitor concentration was determined and IC50 values assessed using nonlinear regression.

[2] = biological target: T2, human IDO1 (Homo sapiens, UniProt P14902); assay: human IDO1/HEK293 cell IDO inhibition assay; type: cell-based; details: HEK293 cells stably expressing human IDO1, 20 hours incubation, absorbance at 490 nm; read-out: IDO1 HEK Human IC50
T2 construct: expressed in transfected cells
T2 sequence (P14902 whole entry): as above
Experimental: HEK293 cells were transfected with a pCDNA-based mammalian expression vector harboring human IDO1 cDNA (NM 002164.2) by electroporation. They were cultured in medium (DMEM with 10% FBS) containing 1 mg/ml G418 for two weeks. Clones of HEK293 cells that stably expressed human IDO1 protein were selected and expanded for IDO inhibition assay.
The human IDO1/HEK293 cells were seeded at 10,000 cells per 50 μL per well with RPMI/phenol red free media contains 10% FBS in a 384-well black wall clear bottom tissue culture plate (Matrix Technologies LLC) 100 nL of certain concentration of compound was then added to each well using ECHO liquid handling systems. The cells were incubated for 20 hours in 37° C. incubator with 5% CO2.
The compound treatments were stopped by adding trichloroacetic acid (Sigma-Aldrich) to a final concentration at 0.2%. The cell plate was further incubated at 50° C. for 30 minute. The equal volume supernatant (20 μL) and 0.2% (w/v) Ehrlich reagent (4-dimethylaminobenzaldehyde, Sigma-Aldrich) in glacial acetic acid were mixed in a new clear bottom 384-well plate. This plate was then incubated at room temperature for 30 minute. The absorbance at 490 nm was measured on Envision plate reader.
Compound IC50 values were calculated using the counts of 500 nM of a reference standard treatment as one hundred percent inhibition, and counts of no compound but DMSO treatment as zero percent inhibition.

Compound	IC50 [1]	IC50 [2]
O=C(C[C@H]1CC[C@]2(CC1)OCc1ccccc12)Nc1ccc(Cl)cc1 [Example 3, N-(4-Chlorophenyl)-2-((1s,4s)-3′H-spiro[cyclohexane-1,1′-isobenzofuran]-4-yl)acetamide]	219 nM	511 nM
C[C@H](C(=O)Nc1ccc(Cl)cc1)[C@H]1CC[C@@]2(CC1)COc1ccccc12 [Example 15, (S)—N-(4-Chlorophenyl)-2-((1'S,4′r)-2H-spiro[benzofuran-3,1′-cyclohexan]-4′-yl)propanamide]	20 nM	17 nM
CC(NC(=O)c1ccc(Cl)cc1)[C@H]1CC[C@]2(CC1)OCc1ccccc12 (mixture of isomers) [Example 11, rac-N-(1-((1s,4s)-3′H-spiro[cyclohexane-1,1′-isobenzofuran]-4-yl)ethyl)-4-chlorobenzamide]	45 nM	

Second part, the compound after the results:

IC50 [1]	IC50 [2]	Compound
114 nM	100 nM	O=C(C[C@H]1CC[C@@]2(CC1)OCc1ccccc12)Nc1ccc(Cl)cc1 [Example 1, N-(4-Chlorophenyl)-2-((1r,4r)-3′H-spiro[cyclohexane-1,1′-isobenzofuran]-4-yl)acetamide]
1300 nM		CC(C(=O)NC12CC3CC(CC(C3)C1)C2)[C@H]1CC[C@]2(CC1)OCc1ccccc12 (mixture of isomers) [Example 6, rac-N-((1R,3S)-Adamantan-1-yl)-2-((1S,4s)-3′H-spiro[cyclohexane-1,1′-isobenzofuran]-4-yl)propanamide]
